Results from US11136320B2, “Fused ring derivative used as FGFR4 inhibitor” (JACOBIO PHARMACEUTICALS CO., LTD., priority 2019, dated 2021).

What was measured:
PK analysis of rats = assay type: in vivo; conditions: SD rats, p.o. (10 mg/kg); for AUC(0-t) / Cmax: rat, plasma, po; for AUC(0-t): read-out: Curve area AUC0-24 h; for Cmax: read-out: Drug concentration in blood Cmax
Description: In the present invention, the pharmacokinetics experiment of the compounds in rats was performed using the SD rats (Vitolihua).
(1) Mode of administration: single gavage administration and intravenous injection administration.
(2) Dosage: 10 mg/kg in the gavage administration, 3 mg/kg in the intravenous injection administration.
Gavage administration: before administration, 15 min, 30 min, 1 h, 2 h, 4 h, 6 h, 8 h, 24 h; […]
(4) Sample processing: 200 μL of orbital blood was collected at each sampling time point. After anticoagulation with heparin, the blood was centrifuged at 5500 rpm for 10 min, and 60 μL of the supernatant was taken and put into the refrigerator at −80° C. for waiting for testing.
Samples obtained after administration of Compound 1 were tested using 4000 LC-MS/MS analyzer, wherein, the chromatographic separation conditions for testing were:
Samples obtained after administration of Compound 7 were tested using 4000 LC-MS/MS analyzer, wherein, the chromatographic separation conditions for testing were:
Samples obtained after administration of Compound 16 were tested using 4000 LC-MS/MS analyzer, wherein, the chromatographic separation conditions for testing were: […]

FGFR4 kinase [1] = molecular target: T1, FGFR4 kinase (Homo sapiens (Human), UniProt P22455)
T1 sequence (P22455 22-802): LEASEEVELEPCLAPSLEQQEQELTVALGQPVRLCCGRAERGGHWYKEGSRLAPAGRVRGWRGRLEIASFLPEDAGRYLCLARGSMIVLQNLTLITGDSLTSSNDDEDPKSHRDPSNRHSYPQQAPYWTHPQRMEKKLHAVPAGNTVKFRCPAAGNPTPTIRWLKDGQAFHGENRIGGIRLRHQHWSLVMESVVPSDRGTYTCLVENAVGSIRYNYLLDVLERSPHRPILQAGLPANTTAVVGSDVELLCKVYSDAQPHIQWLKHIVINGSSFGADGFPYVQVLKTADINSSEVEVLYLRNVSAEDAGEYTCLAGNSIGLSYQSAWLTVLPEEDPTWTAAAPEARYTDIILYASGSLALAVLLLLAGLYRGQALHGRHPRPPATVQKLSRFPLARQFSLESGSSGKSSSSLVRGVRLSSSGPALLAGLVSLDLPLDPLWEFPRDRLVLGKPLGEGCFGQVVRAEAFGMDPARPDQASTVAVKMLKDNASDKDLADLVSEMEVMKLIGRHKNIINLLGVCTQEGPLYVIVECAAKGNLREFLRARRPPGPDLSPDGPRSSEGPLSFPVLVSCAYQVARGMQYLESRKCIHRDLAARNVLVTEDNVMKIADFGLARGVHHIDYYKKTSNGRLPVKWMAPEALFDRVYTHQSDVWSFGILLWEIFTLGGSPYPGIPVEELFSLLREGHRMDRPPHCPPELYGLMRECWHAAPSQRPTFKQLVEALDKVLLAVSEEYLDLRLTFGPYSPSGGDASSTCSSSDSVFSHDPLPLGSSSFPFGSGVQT

FGFR4 kinase [2] = molecular target: T1, FGFR4 kinase; test: biochemical
[3] = system: Hepatoma cell Hep3B (high expression of FGFR4 and FGF19); test: Hepatoma cell proliferation inhibition experiment (MTS method); assay type: cell-based; conditions: for IC50: Homo sapiens, Hep3B, 120 h incubation, read-out: Hep3B(IC50 μM)
Source text: In this experiment, the MTS method was used to test the inhibitory effect of the compounds on the proliferation of Hepatoma cell Hep3B (high expression of FGFR4 and FGF19), and the half inhibitory concentration IC50 of the compounds to Hep3B was obtained. The Hep3B cell line was purchased from ATCC, and the complete culture medium of the Hep3B cell line was MEM+10% FBS+1% PS. MEM cell culture medium, fetal bovine serum, and trypsin were purchased from Gibco, cell culture flasks were purchased from Greiner, and disposable Cell Counting Plate and Taittinger Blue Solution were purchased from Bio-Rad.
(1) 100 μl Hepatoma cell Hep3B suspension was seeded in a 96-well cell culture plate, and the density of each well was 2.0×10^4 cells/ml.
(3) A mixture of MTS (3-(4,5-dimethylthiazol-2-yl)-5-(3-carboxymethoxyphenyl)-2-(4-sulfophenyl)-2H-tetrazolium)/PMS (phenazine methosulfate) was added into each well for coloration, and MTS/PMS in the mixture was at a ratio of 20:1 (ml:ml). 30 μl of the mixture was added into each well of the culture plate above mentioned in step (2), then the culture plate was incubated for 3 h in the incubator.
(5) The inhibition rate was calculated by the […];
(6) According to the inhibition rate of the different concentrations, the IC50 values of the compounds were obtained by curve fitting.

Compound	exposure amount AUC0-24 h and maximum drug concentration in blood Cmax compared with the reference compound (PK analysis of rats)	AUC(0-t) (PK analysis of rats) [ng·h/mL]	Cmax (PK analysis of rats) [ng/mL]	inhibitory effect on FGFR4 compared with the reference compound (FGFR4 kinase [1])	IC50 (FGFR4 kinase [2]) [nM]	inhibitory effect on Hepatoma cell Hep3B compared with the reference compound [3]	IC50 [3] [µM]
CN1CCN(Cc2cc3c(nc2C=O)N(C(=O)Nc2cc(NC4CCSC4)c(C#N)cn2)CCC3)C(=O)C1 (stereo not drawn) [Compound 5, N-(5-cyano-4-((tetrahydrothiophene-3-yl)amino)pyridin-2-yl)-7-formyl-6-((4-methyl-2-oxopiperazin-1-yl)methyl)-3,4-dihydro-1,8-naphthyridine-1 (2H)-carboxamide]	significantly higher than the reference compound	6730	1400	better inhibitory effect on FGFR4 than the reference compound	2	–	–
CSC[C@@H](C)Nc1cc(NC(=O)N2CCCc3cc(CN4CCCC4=O)c(C=O)nc32)ncc1C#N [Compound 7, (R)—N-(5-cyano-4-((1-(methylthio)propan-2-yl)amino)pyridin-2-yl)-7-formyl-6-((2-oxopyrrolidine-1-yl)methyl)-3,4-dihydro-1,8-naphthyridine-1 (2H)-carboxamide]	significantly higher than the reference compound	2850	736	better inhibitory effect on FGFR4 than the reference compound	1.5	better inhibitory effect	0.011
CN1CCN(Cc2cc3c(nc2C=O)N(C(=O)Nc2cc(NCc4nccs4)c(C#N)cn2)CCC3)C(=O)C1 [Compound 56, N-(5-cyano-4-((thiazol-2-yl-methyl)amino)pyridin-2-yl)-7-formyl-6-((4-methyl-2-oxopiperazin-1-yl)methyl)-3,4-dihydro-1,8-naphthyridine-1(2H)-carboxamide]	significantly higher than the reference compound	2010	548	better inhibitory effect on FGFR4 than the reference compound	1.6	better inhibitory effect	0.013
CN1CCN(Cc2cc3c(nc2C=O)N(C(=O)Nc2cc(NCCSC(F)(F)F)c(C#N)cn2)CCC3)C(=O)C1 [Compound 62, N-(5-cyano-4-((2-((trifluoromethyl)thio)ethyl)amino)pyridin-2-yl)-7-formyl-6-((4-methyl-2-oxopiperazin-1-yl)methyl)-3,4-dihydro-1,8-naphthyridine-1(2H)-carboxamide]	–	–	–	better inhibitory effect on FGFR4 than the reference compound	1.7	–	0.054
CSCCCNc1cc(NC(=O)N2CCCc3cc(CN4CCN(C)CC4=O)c(C=O)nc32)ncc1C#N [Compound 64, N-(5-cyano-4-((3-(methylthio)propyl)amino)pyridin-2-yl)-7-formyl-6-((4-methyl-2-oxopiperazin-1-yl)methyl)-3,4-dihydro-1,8-naphthyridine-1(2H)-carboxamide]	–	–	–	better inhibitory effect on FGFR4 than the reference compound	1.6	better inhibitory effect	0.018
C[C@H](C[S+](C)[O-])Nc1cc(NC(=O)N2CCCc3cc(CN4CCN(C)CC4=O)c(C=O)nc32)ncc1C#N (stereo partly drawn) [Compound 69, N-(5-cyano-4-(((2R)-1-(methylsulfinyl)propan-2-yl)amino)pyridin-2-yl)-7-formyl-6-((4-methyl-2-oxopiperazin-1-yl)methyl)-3,4-dihydro-1,8-naphthyridine-1(2H)-carboxamide]	–	–	–	better inhibitory effect on FGFR4 than the reference compound	2.1	–	0.067
CN1CCN(Cc2cc3c(nc2C=O)N(C(=O)Nc2cc(NCCS(C)(=O)=O)c(C#N)cn2)CCC3)C(=O)C1.Cl [Compound 72, N-(5-cyano-4-((2-(methyl-sulfonyl)ethyl)amino)pyridin-2-yl)-7-formyl-6-((4-methyl-2-oxopiperazin-1-yl)methyl)-3,4-dihydro-1,8-naphthyridine-1(2H)-carboxamide hydrochloride]	–	–	–	better inhibitory effect on FGFR4 than the reference compound	2	–	0.282
CSCCNc1cc(NC(=O)N2CCCc3cc(CN(C)C(=O)C4CCOCC4)c(C=O)nc32)ncc1C#N.Cl [Compound 73, N-(5-cyano-4-((2-(methyhthio)ethyl)amino)pyridin-2-yl)-7-formyl-6-((N-methyltetrahydro-2H-pyran-4-carboxamido)methyl)-3,4-dihydro-1,8-naphthyridine-1(2H)-carboxamide hydrochloride]	–	–	–	better inhibitory effect on FGFR4 than the reference compound	2.3	–	0.039
CSCCNc1cc(NC(=O)N2CCCc3cc(CN(C)C(=O)[C@@H]4CCCO4)c(C=O)nc32)ncc1C#N.Cl [Compound 75, (S)-N-(5-cyano-4-((2-(methylthio)ethyl)amino)pyridin-2-yl)-7-formyl-6-((N-methyltetrahydrofuran-2-carboxamido)methyl)-3,4-dihydro-1,8-naphthyridine-1(2H)-carboxamide hydrochloride]	–	–	–	better inhibitory effect on FGFR4 than the reference compound	1.8	–	0.028
CSCCNc1cc(NC(=O)N2CCCc3cc(CN(C)C(=O)C4CCOC4)c(C=O)nc32)ncc1C#N.Cl (stereo not drawn) [Compound 76, N-(5-cyano-4-((2-(methylthio)ethyl)amino)pyridin-2-yl)-7-formyl-6-((N-methyltetrahydrofuran-3-carboxamido)methyl)-3,4-dihydro-1,8-naphthyridine-1(2H)-carboxamide hydrochloride]	–	–	–	better inhibitory effect on FGFR4 than the reference compound	2.1	better inhibitory effect	0.006
C[C@H](CS(C)(=O)=O)Nc1cc(NC(=O)N2CCCc3cc(CN4CCN(C)CC4=O)c(C=O)nc32)ncc1C#N [Compound 83, N-(5-cyano-4-(((2R)-1-(methyl-sulfonyl)propan-2-yl)amino)pyridin-2-yl)-7-formyl-6-((4-methyl-2-oxopiperazin-1-yl)methyl)-3,4-dihydro-1,8-naphthyridine-1(2H)-carboxamide]	–	–	–	better inhibitory effect on FGFR4 than the reference compound	2.1	–	0.068
